Assay results published in patent publication US12343318B2, “Use of compound or medicinal derivative thereof in inhibiting AIM2 protein activity” (Liangdan Sun, priority 2023, dated 2025).

Key:
human AIM2 protein = target: T1, human AIM2 protein (Homo sapiens, UniProt O14862); assay: Affinity by SPR (Biacore, CM5 chip amino-coupling), human AIM2; settings: human full-length AIM2 protein, read-out: binding constant KD
T1 construct: a human full-length AIM2 protein is expressed and purified firstly by pET28A vector; made in house
T1 sequence (O14862 1-343): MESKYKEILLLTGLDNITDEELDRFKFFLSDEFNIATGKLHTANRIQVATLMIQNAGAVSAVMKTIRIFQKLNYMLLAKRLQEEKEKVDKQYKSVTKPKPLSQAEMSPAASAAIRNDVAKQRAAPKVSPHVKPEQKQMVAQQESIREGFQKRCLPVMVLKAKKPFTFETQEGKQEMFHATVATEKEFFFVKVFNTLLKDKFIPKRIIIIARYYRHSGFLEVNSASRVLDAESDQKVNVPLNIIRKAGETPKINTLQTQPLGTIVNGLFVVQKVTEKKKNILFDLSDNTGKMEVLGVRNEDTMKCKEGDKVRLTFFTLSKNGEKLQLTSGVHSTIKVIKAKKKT
Procedure: In the embodiment of the disclosure, the affinity between T6S1683 and human AIM2 protein is detected. Specifically, a human full-length AIM2 protein is expressed and purified firstly by pET28A vector, and then the affinity is determined by CM5 chip amino-coupling method through a surface-plasmon resonance (SPR) method of Biacore.

mouse AIM2 protein = target: T2, mouse AIM2 protein (Mus musculus, UniProt Q91VJ1); assay: Affinity by SPR (Biacore, CM5 chip amino coupling), mouse AIM2; settings: mouse full-length AIM2 protein, read-out: binding constant KD
T2 construct: a mouse full-length AIM2 protein is expressed and purified firstly by pET28A vector; made in house
T2 sequence (Q91VJ1 1-354): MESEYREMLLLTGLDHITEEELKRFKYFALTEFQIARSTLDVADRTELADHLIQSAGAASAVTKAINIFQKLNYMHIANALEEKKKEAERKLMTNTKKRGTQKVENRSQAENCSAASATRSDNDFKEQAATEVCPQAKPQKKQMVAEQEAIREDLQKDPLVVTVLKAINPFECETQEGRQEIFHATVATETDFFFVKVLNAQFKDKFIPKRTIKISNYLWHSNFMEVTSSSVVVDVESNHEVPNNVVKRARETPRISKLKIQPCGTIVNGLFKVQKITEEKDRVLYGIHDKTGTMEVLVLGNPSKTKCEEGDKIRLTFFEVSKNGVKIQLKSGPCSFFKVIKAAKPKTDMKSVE
Procedure: In the embodiment of the disclosure, the affinity between T6S1683 and mouse AIM2 protein is detected. Specifically, a mouse full-length AIM2 protein is expressed and purified firstly by pET28A vector, and then the affinity is determined by CM5 chip amino coupling method by the SPR method of Biacore.

[1] = test system: IL-1β mRNA in HaCaT cells; assay: Real-time fluorescence PCR of IL-1β mRNA in HaCaT cells stimulated by OligodA-T; assay type: cell-based; settings: 10 uM, 24 hours
Procedure: The protective ability of 44 compounds screened above against cell pyroptosis of HaCaT cells stimulated by OligodA-T is evaluated by the real-time fluorescent quantitative polymerase chain reaction (PCR) detection of IL-1β mRNA in the stimulated cells. […] Positive control (PC) and negative control (NC) are set in the experimental group. An inclusion of Lip3000 (Lipofectamine™ 3000 Transfection Reagent) and OligodA-T (OligodA-T: Lip3000:P3000=1:1:25, a concentration of OligodA-T is 1 microgram per […] abbreviated as ug/mL) is used to transfect HaCat cells. […] Each experimental group is incubated in a cell incubator containing 5% CO2 for 24 hours at 37° C., and the cells are collected for real-time fluorescence PCR detection.
• (1) A positive control (PC), a negative control (NC) and respective treatment groups are set. […] The HaCat cells are co-transfected with inclusions of Lip3000-OligodA-T at gradient doses (0.1 uM, 1 uM, 5 uM, 10 uM and 25 uM) of T6S1683 in the respective treatment groups. • (2) The positive control (PC), the negative control (NC) and the respective treatment groups are incubated in a cell incubator containing 5% CO2 at 37° C. for 24 hours, and the cells are collected for real-time fluorescence PCR detection to observe the effects of different doses of inhibitors on the activation of AIM2 pathway in the HaCaT cells.

HaCaT cells = assay: Cell state (pyroptosis) of OligodA-T transfected HaCaT cells under microscope; assay type: cell-based; settings: 10 uM, microscope 100×
[2] = test system: AIM2 downstream protein in HaCat cells; assay: AIM2 downstream protein expression in HaCaT cells (Western Blot, ELISA); assay type: cell-based; settings: 10 uM
IMQ mice = assay: IMQ psoriasis mouse model: PASI scores, skin and pathological phenotypes; assay type: in vivo, C57/BL6 mice
Procedure: (§1) In the embodiment of the disclosure, dimethyl sulfoxide (DMSO) is used to dissolve T6S1683 powder, the powder is weighed according to different dosage, then diluted with β-cyclodextrin, and a final concentration of DMSO shall not exceed 5%. The dose gradients of T6S1683 set are 0 mg/kg, 1 mg/kg, 2.5 mg/kg, 5 mg/kg and 10 mg/kg respectively. Each mouse is calculated as 20 grams (g), and 0 mg/kg, 1 mg/kg, 2.5 mg/kg, 5 mg/kg and 10 mg/kg of T6S1683 are administered respective mice every day.
Seven-week-old C57/BL6 mice are selected, fed and modeled in a […] (SPF) environment. The experimental groups are as follows. (a) mouse skin smeared with IMQ and 0 mg/kg of T6S1683; (b) mouse skin smeared with IMQ and 1 mg/kg of T6S1683; (c) mouse skin smeared with IMQ and 2.5 mg/kg of T6S1683; (d) mouse skin smeared with IMQ and 5 mg/kg of T6S1683; (e) mouse skin smeared with IMQ and 10 mg/kg of T6S1683; (f) mouse skin smeared with Vaseline and 0 mg/kg of T6S1683; (g) mouse skin smeared with Vaseline and 1 mg/kg of T6S1683; (h) mouse skin smeared with Vaseline and 2.5 mg/kg of T6S1683; (i) mouse skin smeared with Vaseline and 5 mg/kg of T6S1683; and (j) mouse skin smeared with Vaseline and 10 mg/kg of T6S1683. (Note: the daily dosage of IMQ in groups (a), (b), (c), (d) and (e) is 62.5 mg/mouse, and the daily dosage of Vaseline in groups (f), (g), (h), (i) and (j) is 62.5 mg/mouse.)
Six mice in each group above, and the mice are shaved back hair to make an exposed skin reach 4 square centimeters. A start date of the experiment is set as Day 0 and an end date is set as Day 6. From Day 0 to Day 5, 500 μL medicine solution is applied daily and evenly smeared mouse skin to absorb, with 500 uL applied in the morning at a dose of 150 uL, at noon at 200 uL, and at night at 150 uL. […] The mouse skins are scored every day, the mice are sacrificed on Day 6, and skin tissue is taken for a series of tests. […]

[3] = test system: TCRγ/CD3^+RORγt cells in the lymphocytes of mouse skin; assay: Flow cytometry of skin lymphocytes of IMQ mice; assay type: in vivo, C57/BL6 mice; settings: 5 mg/kg, smeared on skin
Procedure: as §1
(§2) Seven-week-old C57/BL6 mice are selected, fed and modeled in a […] (SPF) environment. The experimental groups are as follows. […]
(§3) Six mice in each group above, and the mice are shaved back hair to make an exposed skin reach 4 square centimeters. […] The mouse skins are scored every day, the mice are sacrificed on Day 6, and skin tissue is taken for a series of tests.
Next, skin lymphocytes of the mice in each group (proportion of TCRγ/CD3^+RORγt cells in the lymphocytes of mouse skin, which are the main effector cells mediated by AIM2 pathway in psoriasis and can secrete a large amount of IL-17 cytokines to aggravate psoriasis) are detected by flow cytometry.

[4] = test system: IL-1β gene expression in the mouse skin; assay: Transcription levels of AIM2 pathway genes in skin of IMQ mice; assay type: in vivo, C57/BL6 mice; settings: 5 mg/kg, smeared on skin
Procedure: as §1, §2, §3

## COc1cc(/C=C/C(=O)CC(=O)/C=C/c2ccc(O)cc2)ccc1O [T6S1683, 1,6-heptadiene-3,5-dione,1-(4-hydroxy-3-methoxyphenyl)-7-(4-hydroxyphenyl)-,(1E, 6E)-]
Human AIM2 protein
  Kd: 1.56 µM
Mouse AIM2 protein
  Kd: 5.12 µM
[1]; among 5 dose gradients (0.1, 1, 5, 10, 25 uM)
  IL-β transcription levels compared to the PC group: reduced IL-β transcription levels in the HaCat cells the most
[1]; screening of 44 compounds, OligodA-T 1 ug/mL
  inhibitory effect on IL-1β mRNA compared with the positive control: most significant inhibitory effect
HaCaT cells
  cell state: close to that of the NC group
[2]
  expression of AIM2 downstream protein (Western Blot): slightly decreases
  secretion of IL-1β (ELISA): inhibitory effect
IMQ mice; 1 mg/kg, smeared on skin
  effect on inflammatory phenotype of IMQ mice: no difference
IMQ mice; 5 mg/kg, smeared on skin
  reduction effect on inflammatory phenotype of IMQ mice: the most significant
IMQ mice; three doses, smeared on skin daily Day 0 to Day 5
  inflammatory phenotype of IMQ mice: reduced the inflammatory phenotype of IMQ mice to varying degrees
[3]
  proportion of TCRγ/CD3^+RORγt compared with IMQ mice without T6S1683: significantly lower
[4]
  IL-1β gene expression level in mouse skin: significantly down-regulated
